These results are taken from paper PMC4900566, “Pharmacokinetic-Pharmacodynamic Analysis on Inflammation Rat Model after Oral Administration of Huang Lian Jie Du Decoction” (PLoS ONE, 2016).

Where two headings read alike, the source gives them in different places.

A short description of the data set: Pharmacokinetics of HLJDD components in rat plasma after oral administration of HLJDD (LC-QqQ-MS, non-compartmental). The format is in vivo, Sprague-Dawley rats. The following applies: oral HLJDD extract; for AUC%Extrap / AUMClast / Cmax1 / Cmax2 / HLλz / Tmax1 / Tmax2 / AUC(0-inf) / AUC(0-t) / MRT last / CL/F / Vd/F / AUCinf / AUClast / MRTlast / Vz/F: crude material 3.5 g/kg, plasma, n = 6; for mean AUClast, fold larger in the inflamed group than in the control group: inflamed vs normal rats; for Vd/F: read-out: Vz/F. The protocol:
The rats were acclimatized to the facilities for 5 days and screened via the continuous determination of the rectal temperature for two days. […] The control group G1 was injected with the same volume of physiological saline. The ethics committees of Cisco North Biotechnology Co., Ltd. (Beijing, China) and the China Academy of Chinese Medical Sciences (Beijing, China) approved the experimental protocol.
For the PK-PD analysis, cannulas were implanted in each rat’s jugular vein (n = 22). To study the hepatic first-pass effect (HFPE), the jugular vein and the pyloric vein of each rat (n = 5) were cannulated according to the method described by Hye J. Chung et al. with slight modifications. Instead of the portal vein, the pyloric vein was cannulated to minimize the interference of blood flow in the portal vein [41]. The surgery was performed under anesthesia (3% chloral hydrate solution, intraperitoneal injection; 3.5 mL/kg) 5 days prior to the experiment. Rats with jugular vein intubation surgery were divided into four groups: a control group with HLJDD (G1, n = 6), aninflammatory group with HLJDD (G2, n = 6), aninflammatory group with physiological saline (G3, n = 5) and another inflammatory group with HLJDD (G4, n = 5). G1 and G2 were used for the pharmacokinetic study, while G3 and G4 were used for the pharmacodynamic study. Rats with jugular and pyloric vein cannulation for HFPE analysis were assigned to another inflammatory group with HLJDD (G5, n = 5).
The prepared HLJDD-EP solution was administered to the rats (G1, G2, G4 and G5) at 2 mL/100g body weight (crude material content: 3.5 g/kg) by oral gavage, and the G3 group was given the same volume of physiological saline. […] The rectal temperature of rats in the G3 and G4 groups was immediately monitored after each collection of blood. […] Samples were collected in heparinized Eppendorf tubes and centrifuged at 3000 rpm for 15 min. The plasma was stored at -80°C until assay.
The supernatant was dried with nitrogen at 40°C. The residue was re-dissolved in 100 μL of methanol and centrifuged at 15000 rpm for 10 min.
Liquid chromatographic separations of the analytes were performed using a Thermo Scientific Hypersil GOLD column (50 mm× 2.1 mm, 1.9 μm). The mobile phase consisted of acetonitrile (solvent A) and 0.1% formic acid in water (solvent B). […] The flow rate was 0.3 mL/min. The injection volume was 2 μL. […] The optimized ESI source parameters were as follows: gas temperature, 200°C; gas flow, 14 L/min; nebulizer pressure, 20 psi; sheath gas temperature, 400°C; and sheath gas flow, 11 L/min. Analytes were quantitated by monitoring the precursor-product combination in the DMRM mode using ion polarity switching (flavonoids and alkaloids were determined in the positive mode, while iridoids were detected in the negative mode). To ensure the desired abundance of each compound, the CE values and other parameters were optimized and illustrated as follows: cycle time, 300 ms; positive capillary voltage, 3000 v; negative capillary voltage, 2000 v; positive nozzle voltage, 1500 v; negative nozzle voltage, 1000 v; Delta EMV(+), 200 v; Delta EMV(-), 200 v. The optimized mass transition ion pairs (m/z) for analytes and the detection of the conditions of the compounds are shown in S1 Table.
Pharmacokinetic parameters of the determined compounds were processed by the non-compartmental method using Phoenix Winnonlin software (Pharsight Corporation, USA). Linear trapezoidal integration was used to calculate areas under the concentration-time curves (AUC) and areas under the first moment curves (AUMC). The mean residence time (MRT) was determined as AUMC/AUC. The plasma half-life (HLλz), maximum plasma concentration (Cmax), the time to reach Cmax (Tmax) and other parameters following the administration of HLJDD were determined from the observed data. The HFPE was defined as HCR: HCR% = 100×(AUC0−t in the pyloric vein-AUC0−t in the jugular vein)/AUC0−t in the pyloric vein.

Where [1] appears, read: male, Sprague-Dawley, rat, po, 3.5 g/kg, inflamed rats (group M).
[2] abbreviates: male, Sprague-Dawley, rat, po, 3.5 g/kg, normal rats (group B).

What is called AUC(0-inf) is total exposure, with the tail of the curve extrapolated. As a reminder, the AUC(0-t) is exposure summed from dosing to a finite time, without extrapolation to infinity. Usually MRT last stands for the average time that molecules of a dose stay in the body. `O=C(O)[C@H]1O[C@@H](Oc2cc3oc(-c4ccccc4)cc(=O)c3c(O)c2O)[C@H](O)[C@@H](O)[C@@H]1O` [baicalin]: the “mean AUClast, fold larger in the inflamed group than in the control group” value turned out to be 2.0 fold. Moreover, under “inflamed rats (group M)”, the AUC%Extrap was determined as 2.7±0.5%, the AUMClast is 175077.1±103375.1 h*h*ng/ml, the Cmax1 turned out to be 2420.9 ± 922.5 ng/mL and the Cmax2 was 1000.4 ± 298.1 ng/mL. Moreover, for the setting “inflamed rats (group M)”, the HLλz is 4.7 ± 1.1 h, the Tmax1 was determined as 0.1 ± 0.04 h and the Tmax2 worked out at 9.3 ± 2.1 h. Under setting [1], the AUC(0-inf) turned out to be 16800 ± 9090 ng·h/mL, the AUC(0-t) worked out at 15700 ± 9300 ng·h/mL, the MRT last turned out to be 10.1 ± 2.3 h and the Vd/F came to 58.8 ± 25.2 L/kg. Besides, the CL/F (male, Sprague-Dawley, rat, po, 3.5 g/kg, inflamed rats (group M), read-out: CL/F (converted)) was 145 mL/min/kg. Also, under setting [2], the AUC(0-inf) was found to be 8130 ± 906 ng·h/mL, the AUC(0-t) came to 7880 ± 775 ng·h/mL, the MRT last is 4.3 ± 0.3 h and the Vd/F amounted to 39.6 ± 7.1 L/kg. Also, the CL/F (male, Sprague-Dawley, rat, po, 3.5 g/kg, normal rats (group B), read-out: CL/F (converted)) is 258 mL/min/kg. Moreover, where the note is “normal rats (group B)”, the AUC%Extrap amounted to 2.9±2.3%, the AUMClast is given as 34124.1±4967.9 h*h*ng/ml, the Cmax1 was 1828.8 ± 737.4 ng/mL and the Cmax2 was determined as 1580.1 ± 202.4 ng/mL. Moreover, under “normal rats (group B)”, the HLλz turned out to be 1.8 ± 0.4 h, the Tmax1 was 0.09 ± 0.03 h and the Tmax2 came out at 4.3 ± 0.8 h.
As for `COc1c(O[C@@H]2O[C@H](C(=O)O)[C@@H](O)[C@H](O)[C@H]2O)cc2oc(-c3ccccc3)cc(=O)c2c1O` [oroxylin A-7-O-glucuronide], where the note is “inflamed rats (group M)”, the AUC%Extrap was determined as 46.2±12.3%, the AUCinf amounted to 2157.4 ± 785.0 ng·h/mL, the AUClast came to 1209.8 ± 606.4 ng·h/mL and the AUMClast is reported as 18194.0±6706.5 h*h*ng/ml. Under “inflamed rats (group M)”, the CL/F came out at 202 ± 70 mL/min/kg, the Cmax1 was 108.7 ± 47.6 ng/mL, the Cmax2 was 65.5 ± 18.2 ng/mL and the HLλz is 20.1 ± 6.1 h. Besides, where the note is “inflamed rats (group M)”, the MRTlast amounted to 12.5 ± 2.3 h, the Tmax1 was found to be 0.09 ± 0.03 h, the Tmax2 is 9.6 ± 2.2 h and the Vz/F turned out to be 322.4 ± 22.0 L/kg. Besides, for the setting “normal rats (group B)”, the AUC%Extrap is on record as 10.3±6.8%, the AUCinf was 486.8 ± 96.9 ng·h/mL, the AUClast came to 440.7 ± 106.9 ng·h/mL and the AUMClast stood at 1935.2±487.3 h*h*ng/ml. Where the note is “normal rats (group B)”, the CL/F was determined as 845 ± 225 mL/min/kg, the Cmax1 turned out to be 106.9 ± 43.8 ng/mL, the Cmax2 came out at 85.8 ± 40.3 ng/mL and the HLλz came to 3.2 ± 0.9 h. For the setting “normal rats (group B)”, the MRTlast is 4.4 ± 0.5 h, the Tmax1 came to 0.09 ± 0.03 h, the Tmax2 came out at 4.0 ± 0.0 h and the Vz/F came out at 247.8 ± 140.4 L/kg.
As for `COc1ccc2c(c1O)-c1c(O)c(OC)cc3c1[C@H](C2)[N+](C)(C)CC3` [magnolflorine], the “mean AUClast, fold larger in the inflamed group than in the control group” value was found to be 1.6 fold. Besides, under “inflamed rats (group M)”, the AUC%Extrap is 17.6±8.0%, the AUCinf worked out at 29.3 ± 13.8 ng·h/mL, the AUClast amounted to 24.9 ± 14.6 ng·h/mL and the AUMClast is 97.9±55.4 h*h*ng/ml. Where the note is “inflamed rats (group M)”, the Cmax1 stood at 6.0 ± 1.7 ng/mL, the HLλz was 4.3 ± 2.2 h, the MRTlast came out at 4.1 ± 1.9 h and the Tmax1 is 0.6 ± 0.3 h. Moreover, where the note is “inflamed rats (group M)”, the Vz/F was 607.8 ± 396.5 L/kg. Besides, under “normal rats (group B)”, the AUC%Extrap came out at 6.2±2.4%, the AUCinf is 17.0 ± 2.0 ng·h/mL, the AUClast turned out to be 16.0 ± 2.0 ng·h/mL and the AUMClast came out at 29.5±5.8 h*h*ng/ml. For the same molecule, for the setting “normal rats (group B)”, the CL/F was determined as 2377 ± 265 mL/min/kg, the Cmax1 stood at 6.5 ± 1.1 ng/mL, the HLλz was found to be 1.6 ± 0.4 h and the MRTlast turned out to be 1.8 ± 0.1 h. Further, for the setting “normal rats (group B)”, the Tmax1 is 0.6 ± 0.2 h and the Vz/F worked out at 339.5 ± 97.3 L/kg.
